The record followed here is publication PMC6689975, “Novel Cell Wall Antifungals Reveal a Special Synergistic Activity in pbr1 Mutants Resistant to the Glucan Synthesis Antifungals Papulacandins and Echinocandins” (Frontiers in Microbiology, 2019).

A value given as a limit tells only on which side of the number the result lay.

For assay [1], the system named is Candida albicans C. a.^h (Table 4). The assay is described as follows: microbe, parasite or virus in culture. Also noted: species or system yeast; tube dilution MIC in YEPD (± 1.2 M sorbitol), complete growth inhibition by turbidity. The conditions noted are these: 48 h, YEPD + 1.2 M sorbitol. As to the method:
Standard YEPD (Yeast Extract, Peptone, Dextrose) ([Sherman, 1990]), YEPD+S (YEPD with 1.2M sorbitol), YES (Yeast Extract, Dextrose and Supplements of Adenine, Histidine, Leucine, Uracil and Lysine) ([Alfa et al., 1993]) and YES+S (YES with 1.2 M sorbitol) ([Ribas et al., 1991]; [Ishiguro et al., 1997]), media were used for determination of MIC values of the tested compounds. A stock solution of 10 mg/ml of each tested compounds was prepared in DMSO and serial dilutions in DMSO were prepared. The final concentration of DMSO was 2% in the YEPD medium. […] The serial dilutions of compounds were dispensed into test tubes with 1 ml of YEPD or YEPD+S to make final concentrations of 200, 100, 50, 25, 12.5, 6.26, 3.125, 1.6, 0.8 and 0.4 μg/ml. The tested yeast strains were previously grown in YEPD, YEPD+S, YES or YES+S agar plates at 30°C for 48 h. For inoculation of YEPD or YEPD+S macro test tubes a suspension of tested fungus was produced with 10^5 cfu/ml (cfu - colony forming unit). 10 μl of suspension was used for inoculation of each tube. After 48 h incubation at 30°C the tubes were checked. The MIC value is the lowest concentration of the tested compound that could inhibit the fungal growth and the medium remained clear. From each tube 10 μl culture was plated on YEPD agar medium to check the contamination. The MIC tests were carried out in three parallels. Micro-culture assays of large numbers of samples were analyzed as described) ([Martins et al., 2011]). Essentially early log-phase cells were grown in YEPD, YEPD+S, YES or YES+S (1.2 M sorbitol) medium at 30°C, and diluted to cell density of 4 X 10^6 cells/ml in YEPD, YEPD+S, YES or YES+S medium and aliquots of 100 μl were dispensed into each small test tube (3 ml test tube size). Then, another 100 μl of YEPD, YEPD+S, YES or YES+S with the corresponding dilution of each compound at 2X concentration (4% DMSO) was added. The final volume was 200 μl, with the cells diluted to of 2 X 10^6 cells/ml and each compound diluted to 1X final concentration, containing increasing concentrations of antifungal (0, 1, 2, 5, 10, 20, 50, 100 and 200 μg/ml) or an equivalent volume of solvent (2% DMSO). The cells were grown at 30°C in an orbital roller and turbidity was analyzed after 24 and 48 h of incubation. The MIC was determined as the minimal concentration of tested compound that produced complete cell growth inhibition and kept the medium clear. The MIC values were calculated from at least three independent experiments.

The next assay has as its system C. albicans wild-type. Nature of the assay: microbe, parasite or virus in culture. Also noted: species or system whole yeast cells; macro tube broth dilution MIC in YEPD at 30 C, visual clearness of medium. The conditions noted are these: Candida albicans, 48 h, YEPD medium.

Regarding `O=c1oc2ccc3ccccc3c2cc1-c1ccccc1CO` [compound 12], the MIC in assay [1] was 100 µg/mL; against C. albicans wild-type (C. albicans strain f) it was above 200 µg/mL; in the assay on C. albicans wild-type (C. albicans strain g), above 200 µg/mL; in the assay on C. albicans wild-type (C. albicans strain h) it was above 200 µg/mL.

Regarding `O=c1oc2ccccc2cc1-c1ccccc1CO` [compound 15], the MIC was above 200 µg/mL in assay [1], above 100 µg/mL against C. albicans wild-type (C. albicans strain f), above 100 µg/mL with C. albicans wild-type (C. albicans strain g) and above 100 µg/mL in the assay with C. albicans wild-type (C. albicans strain h).
